pIC50: −log10 of the molar value.
Tests used:
[1] = Pharmacokinetics in SD Rat; format: in vivo, Sprague-Dawley (SD) rat; conditions: Sprague-Dawley, male SD rat, plasma; for clearance: IV 3 mg/kg; for AUC(0-inf) / half-life / Cmax: PO 15 mg/kg (IV used for Clearance); for Cmax: read-out: Cmax
Method: Animal studies were done as approved protocols by the Institutional Animal Care and Use Committee at INVIVO Biotech Co., Ltd.
Animal information: Sprague-Dawley (SD) rat, SPF, 6-8 weeks, Male, weight 200-250 g, purchased from Beijing Vital River Lab (Beijing, People's Republic of China).
Formulation: Prepare 1.5 mg/ml and 0.6 mg/ml compound solution in […](20% HPβCD) for PO and IV respectively, dosing immediately after preparation.
Administration: PO and IV;

FGFR3 = target: T1, FGFR3 (Homo sapiens, UniProt P22607); experiment: FGFR3 Biochemical Caliper Assay (KinEASE-TK kit); conditions: ratio FGFR3/FGFR2 of the biochemical assay
T1 construct: purchased Carna 08-135
Summary of the method: (§1)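 KinEASE-TK HTRF readout: enzyme at 0.2 nM (FGFR1, FGFR3) preincubated 10 min at RT with 10-point 3-fold compound dilutions before TK-substrate/ATP start.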

SNU16 cells = experiment: SNU16 Cancer Cell Line Proliferation Assay (CellTiter-Glo); format: cell-based; conditions: Homo sapiens, SNU-16, 72 h
Summary of the method: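 SNU16 cells at 5000/well exposed to 9-point 3-fold serial compound dilutions (DMSO control) for 72 h at 37 °C, 5% CO2. Viability read by luminescence; IC50 calculated from dose-response.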

FGFR2 = target: T2, FGFR2 (Homo sapiens, UniProt P21802); experiment: FGFR2 Biochemical Caliper Assay (KinEASE-TK kit); conditions: 0.07 nM FGFR2; compound incubated with protein 10 min, reaction 45 min at RT; read-out: FGFR2 Cliper IC50
T2 construct: purchased Carna 08-134

FGFR1 = target: T3, FGFR1 (Homo sapiens, UniProt P11362); experiment: FGFR1 Biochemical Caliper Assay (KinEASE-TK kit); conditions: ratio FGFR1/FGFR2 of the biochemical assay
T3 construct: purchased Carna 08-133
Summary of the method: as §1

T1 sequence (P22607 23-806): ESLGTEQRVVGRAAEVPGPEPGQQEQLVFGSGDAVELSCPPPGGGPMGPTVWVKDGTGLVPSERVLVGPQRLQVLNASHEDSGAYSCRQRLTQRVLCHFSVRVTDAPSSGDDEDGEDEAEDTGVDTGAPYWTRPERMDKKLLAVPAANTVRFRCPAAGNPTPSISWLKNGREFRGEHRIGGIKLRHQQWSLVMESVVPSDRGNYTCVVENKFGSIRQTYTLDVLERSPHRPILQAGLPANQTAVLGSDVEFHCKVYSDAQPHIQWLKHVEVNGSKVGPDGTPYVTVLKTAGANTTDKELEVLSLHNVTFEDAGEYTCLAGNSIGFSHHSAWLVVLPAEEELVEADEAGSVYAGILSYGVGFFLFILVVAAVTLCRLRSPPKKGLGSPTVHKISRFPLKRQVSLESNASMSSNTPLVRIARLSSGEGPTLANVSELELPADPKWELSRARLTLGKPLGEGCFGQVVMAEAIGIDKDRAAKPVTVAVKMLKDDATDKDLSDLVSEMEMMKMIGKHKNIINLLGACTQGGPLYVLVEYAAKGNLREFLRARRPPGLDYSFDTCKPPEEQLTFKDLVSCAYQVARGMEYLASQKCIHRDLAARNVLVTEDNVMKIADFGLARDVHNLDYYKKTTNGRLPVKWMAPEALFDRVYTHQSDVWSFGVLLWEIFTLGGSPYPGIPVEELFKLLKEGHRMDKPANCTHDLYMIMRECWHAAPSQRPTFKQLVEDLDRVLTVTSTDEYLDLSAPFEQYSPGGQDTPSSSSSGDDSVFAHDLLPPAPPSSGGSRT
T3 sequence (P11362 22-822): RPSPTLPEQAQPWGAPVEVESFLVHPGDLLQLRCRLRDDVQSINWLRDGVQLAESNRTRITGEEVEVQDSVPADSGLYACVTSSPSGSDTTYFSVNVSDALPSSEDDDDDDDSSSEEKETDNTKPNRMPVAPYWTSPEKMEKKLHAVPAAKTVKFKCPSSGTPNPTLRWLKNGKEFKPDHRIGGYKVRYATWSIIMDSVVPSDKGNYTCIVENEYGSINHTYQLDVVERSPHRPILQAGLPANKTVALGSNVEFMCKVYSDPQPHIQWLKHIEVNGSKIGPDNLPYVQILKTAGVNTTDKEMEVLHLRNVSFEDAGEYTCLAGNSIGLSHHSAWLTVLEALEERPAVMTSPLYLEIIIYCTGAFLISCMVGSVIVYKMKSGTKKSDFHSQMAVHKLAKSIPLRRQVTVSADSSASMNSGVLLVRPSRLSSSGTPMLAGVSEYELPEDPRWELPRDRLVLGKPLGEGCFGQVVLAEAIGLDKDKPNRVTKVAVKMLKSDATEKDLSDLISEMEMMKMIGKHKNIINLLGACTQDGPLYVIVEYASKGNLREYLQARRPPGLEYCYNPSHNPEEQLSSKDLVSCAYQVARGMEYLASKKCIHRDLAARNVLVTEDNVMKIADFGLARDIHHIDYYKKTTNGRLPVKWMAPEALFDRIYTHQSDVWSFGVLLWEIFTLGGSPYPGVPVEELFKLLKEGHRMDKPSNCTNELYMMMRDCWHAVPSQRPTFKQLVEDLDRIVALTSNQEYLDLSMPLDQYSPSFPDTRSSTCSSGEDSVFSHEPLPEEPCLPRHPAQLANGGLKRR
T2 sequence (P21802 22-821): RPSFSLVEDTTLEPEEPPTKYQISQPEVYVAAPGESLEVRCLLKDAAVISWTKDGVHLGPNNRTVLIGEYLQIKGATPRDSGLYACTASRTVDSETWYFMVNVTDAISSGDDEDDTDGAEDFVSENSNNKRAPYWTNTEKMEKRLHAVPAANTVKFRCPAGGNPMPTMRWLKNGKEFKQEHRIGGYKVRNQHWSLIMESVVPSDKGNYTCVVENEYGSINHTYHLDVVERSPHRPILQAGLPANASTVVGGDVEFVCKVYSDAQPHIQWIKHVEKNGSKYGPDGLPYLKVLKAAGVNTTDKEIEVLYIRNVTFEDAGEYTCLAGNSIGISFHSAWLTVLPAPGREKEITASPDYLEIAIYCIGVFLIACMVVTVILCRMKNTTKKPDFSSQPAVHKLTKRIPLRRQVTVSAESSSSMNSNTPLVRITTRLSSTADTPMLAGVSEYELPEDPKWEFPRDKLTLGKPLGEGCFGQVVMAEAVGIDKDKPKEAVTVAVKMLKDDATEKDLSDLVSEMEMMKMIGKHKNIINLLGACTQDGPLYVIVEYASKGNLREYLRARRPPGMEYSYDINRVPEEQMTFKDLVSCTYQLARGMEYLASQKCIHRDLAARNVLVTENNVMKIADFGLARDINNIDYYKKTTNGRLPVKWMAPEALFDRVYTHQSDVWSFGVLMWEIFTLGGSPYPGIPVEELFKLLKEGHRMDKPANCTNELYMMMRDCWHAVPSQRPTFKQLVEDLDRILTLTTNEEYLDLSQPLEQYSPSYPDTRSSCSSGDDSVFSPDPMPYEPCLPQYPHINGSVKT

| clearance [1] [mL/min/kg] | AUC(0-inf) [1] [ng·h/mL] | half-life [1] [h] | Cmax [1] [ng/mL] | pIC50 (SNU16 cells) | pIC50 (FGFR2) | SMILES | Selectivity FGFR3/FGFR2 (FGFR3) | Selectivity FGFR1/FGFR2 (FGFR1) |
| --- | --- | --- | --- | --- | --- | --- | --- | --- |
| 17 | 3760 | 2.4 | 1180 | ≥ 8.00 | < 8.00 | C=C(F)C(=O)Nc1ccc(-c2nn3ncnc(N)c3c2-c2ccc(C(=O)NC3(C(F)(F)F)CC3)c(OC)c2)cc1 [Compound 308] | A (Selectivity of FGFR3/FGFR2 less than 150 but greater than or equal to 100) | C (Selectivity of FGFR1/FGFR2 less than 200 but greater than or equal to 100) |
| 11 | 3100 | 2.6 | 957 | ≥ 8.00 | 8.00 to 8.30 | C=C(F)C(=O)Nc1ccc(-c2nn3ncnc(N)c3c2-c2ccc(C(=O)NCC3(C(F)(F)F)CC3)c(OC)c2)cc1 [Compound 309] | A+ (Selectivity of FGFR3/FGFR2 greater or equal to 150) | A+ (Selectivity of FGFR1/FGFR2 greater or equal to 500) |
| 26 | 1550 | 3 | 507 | ≥ 8.00 | < 8.00 | C=C(F)C(=O)Nc1ccc(-c2nn3ncnc(N)c3c2-c2ccc(C(=O)NC3CC(F)C3)c(OC)c2)cc1 (centres unmarked) [Compound 185, 4-(4-amino-6-(4-(2-fluoroacrylamido)phe-nyl)pyrazolo[5,1-f][1,2,4]triazin-5-yl)-N-(3-fluorocyclobutyl)-2-methoxybenzamide] | A+ (Selectivity of FGFR3/FGFR2 greater or equal to 150) | A+ (Selectivity of FGFR1/FGFR2 greater or equal to 500) |
| 5.4 | 2070 | 1.3 | 442 | ≥ 8.00 | > 8.30 | C=C(F)C(=O)Nc1ccc(-c2[nH]c3c(C#N)cnc(N)c3c2-c2ccc(C(=O)NC3CC3)c(OC)c2)cc1 [Compound 235, 4-(4-amino-7-cyano-2-(4-(2-fluoroacrylamido)phe-nyl)-1H-pyrrolo[3,2-c]pyridin-3-yl)-N-cyclopropyl-2-methoxybenzamide] | A+ (Selectivity of FGFR3/FGFR2 greater or equal to 150) | A+ (Selectivity of FGFR1/FGFR2 greater or equal to 500) |
| 6.1 | 1820 | 2.4 | 509 | ≥ 8.00 | < 8.00 | C=C(F)C(=O)Nc1ccc(-c2nn3ncnc(N)c3c2-c2ccc(C(=O)NC34CC(F)(C3)C4)c(OC)c2)cc1 [Compound 330] | A+ (Selectivity of FGFR3/FGFR2 greater or equal to 150) | A+ (Selectivity of FGFR1/FGFR2 greater or equal to 500) |
| 3.1 | 2700 | 6 | 621 | ≥ 8.00 | > 8.30 | C=C(F)C(=O)Nc1ccc(-c2c(-c3ccc(C(=O)NCC(F)(F)F)c(OC)c3)c3c(N)ncc(C#N)c3n2C)cc1 [Compound 96, 4-(4-amino-7-cyano-2-(4-(2-fluoroacrylamido)phenyl)-1-methyl-1H-pyrrolo[3,2-c]pyridine-3-yl)-2-methoxy-N-(2,2,2-trifluoroethyl)benzamide] | A+ (Selectivity of FGFR3/FGFR2 greater or equal to 150) | A+ (Selectivity of FGFR1/FGFR2 greater or equal to 500) |
| 19 | 1240 | 0.98 | 509 | ≥ 8.00 | > 8.30 | C=CC(=O)Nc1ccc(-c2c(-c3ccc(C(=O)NCC(F)(F)F)c(OC)c3)c3c(N)ncc(C#N)c3n2C)cc1 [Compound 28, 4-(2-(4-acrylamidophenyl)-4-amino-7-cyano-1-methyl-1H-pyrrolo[3,2-c]pyridin-3-yl)-2-methoxy-N-(2,2,2-trifluoroethyl)benzamide] | B (Selectivity of FGFR3/FGFR2 less than 100 but greater than or equal to 25) | A (Selectivity of FGFR1/FGFR2 less than 500 but greater than or equal to 300) |

From patent US20240383905A1, “FGFR INHIBITORS AND METHODS OF USE THEREOF” (3H PHARMACEUTICALS CO., LTD., priority 2021, published 2024)
